Test results as given in patent publication US20120088769A1, “SALTS OF ARYLSULFONAMIDE CCR3 ANTAGONISTS” (Axikin Pharmaceuticals, Inc., priority 2010, published 2012).

Assay: Solubility assessment in water (aqueous solubility)
Type: physicochemical
Settings: thermodynamic from solid
Method: Solubility assessment: A preweighed amount of powder of a salt was treated with water to target a nominal concentration of 50 mg/mL. If a clear solution was obtained, then the solubility was noted as ≧50 mg/mL. If a suspension was obtained, it was sonicated for 1 min, followed by vortex mixing for 30 sec, and centrifuged for 5 min. The mother liquor was siphoned off and assayed for content against a standard of the free base by HPLC.

| solubility at 1.5 min (Free base) | solubility at 1.5 min (HBr salt) | solubility at 1.5 min (HCl salt) | solubility at 1.5 min (Mesylate salt) | solubility at 1.5 min (Phosphate salt) | solubility at 1.5 min (Sulfate salt) | solubility at 1.5 min (Tartrate salt) | solubility at 1.5 min (Camsylate salt) | solubility at 1.5 min (Tosylate salt) | solubility at 1.5 min (Citrate salt) | SMILES |
| --- | --- | --- | --- | --- | --- | --- | --- | --- | --- | --- |
| < 10 µg/mL | 400 µg/mL | 1360 µg/mL | 7260 µg/mL | 1700 µg/mL | 790 µg/mL | 450 µg/mL | – | – | – | CN1CCN(S(=O)(=O)c2cc(C#N)ccc2Sc2cc(Cl)cc(Cl)c2)CC1 [Cmpd 1, 4-(3,5-dichlorophenylthio)-3-(4-methylpiperazin-1-ylsulfonyl)benzonitrile] |
| < 10 µg/mL | – | – | 270 µg/mL | 120 µg/mL | 230 µg/mL | – | – | – | – | CCN1CCN(S(=O)(=O)c2cc(C#N)ccc2Oc2cc(Cl)cc(Cl)c2)CC1 [Cmpd 2, 4-(3,5-dichlorophenoxy)-3-(4-ethylpiperazin-1-ylsulfonyl)benzonitrile] |
| < 10 µg/mL | 30 µg/mL | 330 µg/mL | 200 µg/mL | – | – | – | 80 µg/mL | – | – | CCN1CCN(S(=O)(=O)c2cc(C#N)ccc2Oc2cc(C)cc(C)c2)CC1 [Cmpd 3, 4-(3,5-dimethylphenoxy)-3-(4-ethylpiperazin-1-ylsulfonyl)benzonitrile] |
| < 10 µg/mL | 200 µg/mL | 800 µg/mL | 23000 µg/mL | – | 1100 µg/mL | – | 240 µg/mL | – | – | CC(C)N1CCN(S(=O)(=O)c2cc(C#N)ccc2Sc2cc(Cl)cc(Cl)c2)CC1 [Cmpd 4, 4-(3,5-dichlorophenylthio)-3-(4-isopropylpiperazin-1-ylsulfonyl)benzonitrile] |
| < 10 µg/mL | – | 110 µg/mL | 230 µg/mL | 10000 µg/mL | 1200 µg/mL | – | – | – | – | N#Cc1ccc(Sc2cc(Cl)cc(Cl)c2)c(S(=O)(=O)N2CCN(C3CCCC3)CC2)c1 [Cmpd 5, 3-(4-cyclopentylpiperazin-1-ylsulfonyl)-4-(3,5-dichlorophenylthio)-benzonitrile] |
| < 10 µg/mL | 1000 µg/mL | 1590 µg/mL | 10000 µg/mL | 1660 µg/mL | 600 µg/mL | – | 250 µg/mL | 300 µg/mL | – | CCN1CCN(S(=O)(=O)c2cc([N+](=O)[O-])ccc2Oc2cc(Cl)cc(Cl)c2)CC1 [Cmpd 6, 1-(2-(3,5-dichlorophenoxy)-5-nitrophenylsulfonyl)-4-ethylpiperazine] |
| < 10 µg/mL | – | 3670 µg/mL | 3810 µg/mL | 2910 µg/mL | 2350 µg/mL | – | – | – | 800 µg/mL | N#Cc1ccc(Oc2cc(Cl)cc(Cl)c2)c(S(=O)(=O)N2CCC(NC(=O)NCCN3CCOCC3)CC2)c1 [Cmpd 7, 1-(1-(5-cyano-2-(3,5-dichlorophenoxy)phenylsulfonyl)piperidin-4-yl)-3-(2-morpholinoethyl)urea] |
| < 10 µg/mL | – | 1400 µg/mL | 10900 µg/mL | 2400 µg/mL | 580 µg/mL | – | – | – | – | CN1CCN(CCNC(=O)NC2CCN(S(=O)(=O)c3cc(C#N)ccc3Oc3cc(Cl)cc(Cl)c3)CC2)CC1 [Cmpd 8, 1-(1-(5-cyano-2-(3,5-dichlorophenoxy)phenylsulfonyl)piperidin-4-yl)-3-(2-(4-methylpiperazin-1-yl)ethyl)urea] |
